Strand notation (5' to 3'): a small letter for the sugar, then the base; units joined by * are phosphorothioate-linked, units joined directly phosphodiester-linked; [ ] holds rarer units or linkages, { } end groups; capitals alone tell only the bases. d = 2'-deoxy (DNA)
Legend:
[1] = system: freshly isolated peripheral blood human monocytes; assay: IL-12 p40 production by human monocytes (ELISA); type: cell-based; conditions: adherent PBMCs from a healthy donor, 0.5-2 μg/ml PBS, 24 hours incubation, FIG. 1
Description: Adherent Peripheral Blood Mononuclear Cells (PBMCs) from a tuberculin-negative healthy donor were incubated with AS101 or AS103 (0.5-2 μg/ml PBS) or E. coli lipopolysaccharide (LPS) (1 ng/ml PBS; Sigma) for 24 hours. Supernatants were collected after 28 hours for analysis of IL-12 production. Cell supernatants were determined using commercially available Enzyme-Linked Immunosorbent Assay (ELISA) kits (R&D Systems). Supernatants were tested for IL-12p40 by ELISA kit (Endogene).

[2] = system: Murine bone marrow-derived dendritic cells; assay: IL-12 p40 production by murine bone marrow-derived dendritic cells (ELISA); type: cell-based, mice; conditions: DC 10^6 cells/ml, 0.5-10 μg/ml PBS, supernatants after 24 hours, FIG. 2
Description: Murine bone marrow-derived dendritic cells (DC) were prepared by culturing bone marrow cells from the femur and tibia of mice in RPMI medium supplemented with 10% supernatant from a granulocyte-monocyte colony-stimulating factor-secreting cell line.
On day 7 of culture, cells were collected, washed, and resuspended in RPMI medium. DC (10^6 cells/ml) were cultured with AS101 or AS103 (0.5-10 μg/ml PBS), or with CpG. Supernatants were collected after 24 hours for analysis of IL-12 p40 production. Cell supernatants were determined using commercially available ELISA kits (R&D Systems).

[3] = system: KLH-specific IgG1 and IgG2a; assay: Serum antibody responses to KLH in immunized mice (ELISA titers); type: in vivo
Description: Serum was obtained from mice immunized with depyrogenated keyhole limpet hemocyanin (KLH) (5 μg; Calbiochem, La Jolla, Calif.); with KLH plusphosphorothioate-stabilized oligodeoxynucleotide-containing CpG motifs (CpG-ODN) (5′-GCTAGACGTTAGCGT-3′), synthesized by Sigma-Genosys Ltd., Cambridge, United Kingdom; with KLH, plus CpG, plus AS101 (10 μg/ml PBS); or with Dulbecco's PBS alone (Sigma, Poole, United Kingdom), each in a final volume of 50 μl PBS.
On day 7 after immunization, mice were sacrificed by cervical dislocation, and serum and popliteal lymph nodes were collected. Titers of KLH-specific IgG1 and IgG2a in the serum of the immunized mice were determined by ELISA, and analysed for the presence of antibody subclasses IgG1 and IgG2a.

rats = conditions: intravenous and intramuscular administration; cited from earlier work

Compound | IL-12 p40 production [1] | IL-12 p40 production [2] | KLH-specific IgG1 response to KLH plus CpG on addition of the compound ([3]; 10 μg/ml PBS added to KLH plus CpG, day 7 after immunization, FIG. 3a) | production of KLH-specific IgG2a in response to KLH plus CpG on addition of the compound ([3]; 10 μg/ml PBS added to KLH plus CpG, day 7 after immunization, FIG. 3b) | LD50 values relative to the immunologically effective dose (rats) | KLH-specific antibody titer (IgG1 and IgG2a) on use together with KLH ([3]; KLH 5 μg plus CpG versus KLH alone, day 7, FIGS. 3a and 3b)
Cl[TeH]1(Cl)(Cl)OCCO1 [AS101, ammonium trichloro(dioxyethylene-O,O′)tellurate] | potent inducer | potent inducer | no further increase | significantly increased | 500-1000 folds | –
Cl[Te]1(Cl)OCCO1 [AS 103] | very low response | – | – | – | – | –
CpG: phosphorothioate-stabilized oligodeoxynucleotide-containing CpG motifs (CpG-ODN) (5′-GCTAGACGTTAGCGT-3′), synthesized by Sigma-Genosys (DNA dG*dC*dT*dA*dG*dA*dC*dG*dT*dT*dA*dG*dC*dG*dT) [reference compound] | – | – | – | – | – | increased
